As a reminder, the MIC is the least concentration at which growth counts as inhibited. In general, IC50 refers to the concentration that gives 50% inhibition. What is called Papp is a coefficient for how fast a substance crosses the barrier. As a reminder, the half-life is the time in which the quantity being followed falls by half.

The results in this text go back to ChEMBL document CHEMBL3745652, “Synthesis and evaluation of pretomanid (PA-824) oxazolidinone hybrids” (Bioorg Med Chem Lett, 2016).

One data set relates to Streptococcus pyogenes. The data set is described as follows: Antimicrobial activity against Streptococcus pyogenes. It is filed as functional, organism-based.
Data set [1] relates to Mycobacterium tuberculosis. In words: Antimicrobial activity against Mycobacterium tuberculosis H37Rv assessed as growth inhibition after 7 days by microbroth dilution method. To be noted: 168 h. It is filed as functional. (In general: In broth dilution the organism is exposed to a series of concentrations in liquid medium.)
The nature of data set [2]: Plasma protein binding in human. It is filed as ADME, cell-free.
The next data set has as its system Vero. In words: Cytotoxicity against African green monkey Vero cells by cell titer glo assay. To be noted: Chlorocebus sabaeus. It is filed as cell-based.
A further data set relates to Staphylococcus aureus. The data set is described as follows: Antimicrobial activity against Staphylococcus aureus. In kind it is functional, organism-based.
The subject of a further data set is Escherichia coli. The data set is described as follows: Antimicrobial activity against Escherichia coli. In kind it is functional, organism-based.
For another data set, the system named is Streptococcus pneumoniae. The data set is described as follows: Antimicrobial activity against Streptococcus pneumoniae. It is filed as functional, organism-based.
Data set [3] is described as follows: Half life in mouse liver microsomes. In kind it is ADME. To be noted: for t1/2: microsomes. A general note: Liver microsomes are vesicles of endoplasmic reticulum, rich in cytochrome P450 enzymes.
The next data set concerns Klebsiella pneumoniae. The data set is described as follows: Antimicrobial activity against Klebsiella pneumoniae. It is filed as functional, organism-based.
Data set [4] can be described thus: Apparent permeability from apical to basolateral side in human Caco2 cells. To be noted: caco-2. In kind it is ADME, cell-based. (Passage across Caco-2 layers is used to estimate intestinal permeability.)
Another data set has as its system Enterococcus faecalis. The data set is described as follows: Antimicrobial activity against Enterococcus faecalis. In kind it is functional, organism-based.
Data set [5] is described as follows: Apparent permeability from basolateral to apical side in human Caco2 cells. To be noted: caco-2. It is filed as ADME, cell-based.
In the next data set the test system is Bacillus anthracis. In words: Antimicrobial activity against Bacillus anthracis. It is filed as functional, organism-based.
In the next data set the test system is Bacillus subtilis. The data set is described as follows: Antimicrobial activity against Bacillus subtilis. It is filed as functional, organism-based.
Another data set relates to Acinetobacter baumannii. In words: Antimicrobial activity against Acinetobacter baumannii. In kind it is functional, organism-based.

Each structure is given as a SMILES string. Values after ≈ are worked out from the molar mass of the structure shown. Active and inactive are the calls of the source. The calls are words filed in the database; no cut-off is given here.

Consider `O=[N+]([O-])c1cn2c(n1)OC[C@@H](OCc1ccc(N3CCOCC3)cc1)C2`, for which the outcome with Streptococcus pyogenes, in the data set with Staphylococcus aureus, in the data set on Escherichia coli, in the data set on Streptococcus pneumoniae, in the data set on Klebsiella pneumoniae and in the data set on Enterococcus faecalis was inactive. Moreover, the result in the data set with Bacillus anthracis, in the data set on Bacillus subtilis and in the data set with Acinetobacter baumannii was inactive. The minimal inhibitory concentration (MIC) in [1] stood at 3.13 µg/mL (≈ 8.69 µM). This compound registered a PPB in data set [2] of 39.4%. Moreover, in the data set on Vero, half-maximal inhibition (IC50) was put at 42.3 µg/mL (≈ 117 µM). The compound further gave a t1/2 in [3] of 8.3 h. In addition, the apparent permeability (Papp) in data set [4] came to 41.49 ×10⁻⁶ cm/s; in [5], 32.25 ×10⁻⁶ cm/s.

On to `O=C1CCCCN1c1ccc(CO[C@@H]2COc3nc([N+](=O)[O-])cn3C2)cc1F`, for which the outcome in the data set with Streptococcus pyogenes, with Staphylococcus aureus, in the data set on Escherichia coli, in the data set with Streptococcus pneumoniae, in the data set on Klebsiella pneumoniae and with Enterococcus faecalis was inactive. In addition, the outcome in the data set with Bacillus anthracis, in the data set with Bacillus subtilis and in the data set with Acinetobacter baumannii was inactive. For the same compound, the MIC in [1] is 3.13 µg/mL (≈ 8.02 µM). This compound gave a PPB in data set [2] of 74.8%. The IC50 in the data set with Vero is > 100 µg/mL. The same compound came in with a t1/2 in data set [3] of 3.5 h. For the same compound, the Papp was 46.26 ×10⁻⁶ cm/s in data set [4] and 30.45 ×10⁻⁶ cm/s in data set [5].

As for `O=[N+]([O-])c1cn2c(n1)OC[C@@H](OCc1ccc(N3CCSCC3)c(F)c1)C2`, the result in the data set on Streptococcus pyogenes, in the data set on Staphylococcus aureus, with Escherichia coli, in the data set on Streptococcus pneumoniae, in the data set with Klebsiella pneumoniae and in the data set with Enterococcus faecalis was inactive. For the same compound, the outcome in the data set with Bacillus anthracis, with Bacillus subtilis and in the data set with Acinetobacter baumannii was inactive. For the same compound, in data set [1], the MIC came to 3.13 µg/mL (≈ 7.94 µM). Also, the PPB in [2] is reported as 83.2%. Further, the midpoint of inhibition in the data set with Vero, the IC50, lay at 14.2 µg/mL (≈ 36 µM). In data set [3], this compound displayed a t1/2 of 0.06 h. Moreover, the apparent permeability (Papp) in data set [4] was 32.11 ×10⁻⁶ cm/s; in data set [5], 24.26 ×10⁻⁶ cm/s.

Regarding `O=C1CSCCN1c1ccc(CO[C@@H]2COc3nc([N+](=O)[O-])cn3C2)cc1`, the result in the data set with Streptococcus pyogenes, in the data set on Staphylococcus aureus, in the data set on Escherichia coli, with Streptococcus pneumoniae, in the data set with Klebsiella pneumoniae and in the data set on Enterococcus faecalis was inactive. Also, the outcome with Bacillus anthracis, in the data set with Bacillus subtilis and with Acinetobacter baumannii was inactive. The minimum inhibitory concentration (MIC) in [1] came out at 25 µg/mL (≈ 64 µM). In data set [2], this compound came in with a PPB of 59.8%. The IC50 in the data set on Vero was > 100 µg/mL. The compound also returned a t1/2 in [3] of 0.51 h. Further, the apparent permeability (Papp) in data set [4] was found to be 39.56 ×10⁻⁶ cm/s; in data set [5] it was 38.05 ×10⁻⁶ cm/s.

For `O=[N+]([O-])c1cn2c(n1)OC[C@@H](OCc1ccc(N3CCOCC3)nc1)C2`, the result in the data set with Streptococcus pyogenes, in the data set with Staphylococcus aureus, in the data set with Escherichia coli, in the data set with Streptococcus pneumoniae, in the data set with Klebsiella pneumoniae and in the data set with Enterococcus faecalis was inactive. Besides, the result in the data set with Bacillus anthracis, in the data set with Bacillus subtilis and in the data set with Acinetobacter baumannii was inactive. Further, in data set [1], the MIC was found to be 3.13 µg/mL (≈ 8.66 µM). In [2], this compound gave a PPB of 14.5%. The IC50 with Vero is > 100 µg/mL. Further, in data set [3], the t1/2 was determined as 28.1 h. In addition, the apparent permeability (Papp) in data set [4] was determined as 37.13 ×10⁻⁶ cm/s; in data set [5], 27.63 ×10⁻⁶ cm/s.

For the compound `O=[N+]([O-])c1cn2c(n1)OC[C@@H](OCc1ccc(N3CCCCC3)nc1)C2`, the outcome in the data set on Streptococcus pyogenes, in the data set with Staphylococcus aureus, in the data set with Escherichia coli, with Streptococcus pneumoniae, in the data set with Klebsiella pneumoniae and in the data set with Enterococcus faecalis was inactive. For the same compound, the outcome with Bacillus anthracis, with Bacillus subtilis and in the data set with Acinetobacter baumannii was inactive. In addition, the MIC in [1] came out at 0.78 µg/mL (≈ 2.17 µM). Besides, in data set [2], the PPB came out at 76.7%. The IC50 with Vero was > 100 µg/mL. The t1/2 in data set [3] was 1.3 h. Further, the Papp in data set [4] was 37.64 ×10⁻⁶ cm/s; in data set [5] it was 29.04 ×10⁻⁶ cm/s.

With `O=[N+]([O-])c1cn2c(n1)OC[C@@H](OCc1ccc(OC(F)(F)F)cc1)C2` [PRETOMANID], the outcome in the data set with Streptococcus pyogenes, in the data set on Staphylococcus aureus, in the data set with Escherichia coli, with Streptococcus pneumoniae, in the data set on Klebsiella pneumoniae and with Enterococcus faecalis was inactive. The outcome in the data set on Bacillus anthracis, in the data set on Bacillus subtilis and in the data set with Acinetobacter baumannii was inactive. In data set [1], the MIC amounted to 0.39 µg/mL (≈ 1.09 µM). This compound registered a PPB in [2] of 92.9%. The IC50 with Vero amounted to 44 µg/mL (≈ 122 µM). Besides, in [3] (liver microsomes), the half-life is 8.1 h. Besides, the Papp was found to be 31.58 ×10⁻⁶ cm/s in data set [4] and 13.14 ×10⁻⁶ cm/s in data set [5].

Consider `O=C1CSCCN1c1ccc(CO[C@@H]2COc3nc([N+](=O)[O-])cn3C2)cc1F`, for which the result in the data set on Streptococcus pyogenes, in the data set with Staphylococcus aureus, in the data set on Escherichia coli, in the data set with Streptococcus pneumoniae, with Klebsiella pneumoniae and in the data set on Enterococcus faecalis was inactive. The result in the data set on Bacillus anthracis, in the data set on Bacillus subtilis and in the data set on Acinetobacter baumannii was inactive. For the same compound, the MIC in data set [1] amounted to 50 µg/mL (≈ 122 µM). This compound also returned a PPB in data set [2] of 77.6%. Also, the 50% inhibitory concentration (IC50) with Vero is > 100 µg/mL. The compound also came in with a t1/2 in [3] of 0.6 h. In addition, the apparent permeability coefficient (Papp) in data set [4] worked out at 33.39 ×10⁻⁶ cm/s; in data set [5], 37.05 ×10⁻⁶ cm/s.

Consider `O=C1COCCN1c1ccc(CO[C@@H]2COc3nc([N+](=O)[O-])cn3C2)cn1`, for which the outcome in the data set with Streptococcus pyogenes, in the data set with Staphylococcus aureus, with Escherichia coli, in the data set on Streptococcus pneumoniae, in the data set on Klebsiella pneumoniae and in the data set with Enterococcus faecalis was inactive. In addition, the outcome in the data set on Bacillus anthracis, in the data set on Bacillus subtilis and in the data set on Acinetobacter baumannii was inactive. Besides, the MIC in data set [1] was determined as 3.13 µg/mL (≈ 8.34 µM). For the same compound, in data set [2], the PPB was determined as 27.9%. Also, in the data set on Vero, the 50% inhibitory concentration (IC50) was > 100 µg/mL. Moreover, the t1/2 in [3] is > 4 h. Also, the Papp in data set [4] was found to be 43.41 ×10⁻⁶ cm/s; in data set [5], 23.82 ×10⁻⁶ cm/s.

For `O=C1CSCCN1c1ccc(CO[C@@H]2COc3nc([N+](=O)[O-])cn3C2)cn1`, the outcome with Streptococcus pyogenes, in the data set on Staphylococcus aureus, with Escherichia coli, in the data set on Streptococcus pneumoniae, with Klebsiella pneumoniae and with Enterococcus faecalis was inactive. Also, the result in the data set with Bacillus anthracis, with Bacillus subtilis and in the data set on Acinetobacter baumannii was inactive. The minimal inhibitory concentration (MIC) in data set [1] amounted to 50 µg/mL (≈ 128 µM). This compound displayed a PPB in [2] of 32.1%. In the data set on Vero, this compound registered an IC50 of 15.3 µg/mL (≈ 39.1 µM). For the same compound, the t1/2 in data set [3] was 0.63 h. Besides, the Papp amounted to 40 ×10⁻⁶ cm/s in data set [4] and 31.44 ×10⁻⁶ cm/s in data set [5].

As to `O=[N+]([O-])c1cn2c(n1)OC[C@@H](OCc1ccc(N3CCCCC3)cc1)C2`, the outcome in the data set with Streptococcus pyogenes, in the data set on Staphylococcus aureus, with Escherichia coli, with Streptococcus pneumoniae, in the data set with Klebsiella pneumoniae and in the data set with Enterococcus faecalis was inactive. Besides, the result in the data set on Bacillus anthracis, in the data set with Bacillus subtilis and with Acinetobacter baumannii was inactive. For the same compound, the MIC in data set [1] came out at 0.39 µg/mL (≈ 1.09 µM). This compound also yielded a PPB in [2] of 83%. Also, in the data set with Vero, half-maximal inhibition (IC50) was put at 11.6 µg/mL (≈ 32.4 µM). In data set [3], this compound had a t1/2 of 0.49 h. Also, the apparent permeability (Papp) in data set [4] was 31.76 ×10⁻⁶ cm/s; in data set [5], 26.33 ×10⁻⁶ cm/s.

Turning to `O=[N+]([O-])c1cn2c(n1)OC[C@@H](OCc1ccc(N3CCCCC3)c(F)c1)C2`, the result in the data set on Streptococcus pyogenes, in the data set on Staphylococcus aureus, in the data set on Escherichia coli, with Streptococcus pneumoniae, with Klebsiella pneumoniae and in the data set on Enterococcus faecalis was inactive. Moreover, the outcome with Bacillus anthracis, in the data set with Bacillus subtilis and with Acinetobacter baumannii was inactive. In data set [1], the MIC is < 0.2 µg/mL. In [2], this compound had a PPB of 85.6%. Further, in the data set with Vero, half-maximal inhibition (IC50) was put at 56.2 µg/mL (≈ 149 µM). Further, the t1/2 in data set [3] is 0.41 h. Also, the apparent permeability coefficient (Papp) in data set [4] turned out to be 35.46 ×10⁻⁶ cm/s; in data set [5], 28.47 ×10⁻⁶ cm/s.

Consider `CC(=O)NC[C@H]1CN(c2ccc(N3CCOCC3)c(F)c2)C(=O)O1` [LINEZOLID], for which the minimal inhibitory concentration (MIC) in [1] came out at 0.3 µg/mL (≈ 0.889 µM). Moreover, in [2], the PPB was 17.8%.
